Experiment in all cases: Pre-emergence test/greenhouse
What all share (assay type): in vivo

The subject of one test is Alopecurus. The conditions noted are these: greenhouse, application rate 15 gai/ha, rated after three weeks, 0%=no effect, 100%=total destruction. How it is done: (§1) • Solvent: 5 parts by weight of acetone • Emulsifier: 1 part by weight of alkylaryl polyglycol ether
(§2) To produce a suitable preparation of active compound, 1 part by weight of active compound is mixed with the stated amount of solvent, the stated amount of emulsifier is added and the concetrate is diluted with water to the desired concentration.
(§3) Seeds of the test plants are sown in normal soil. After 24 hours, the soil is sprayed with the preparation of active compound such that the particular amount of active compound desired is applied per unit area. The concentration of active compound in the spray liquor is chosen such that the particular amount of active compound desired is applied in 1000 litres of water per hectare.
(§4) After three weeks, the degree of damage to the plants is rated in % damage in comparison to the development of the untreated control. The figures denote: • 0%=no effect (like untreated control) • 100%=total destruction

The test system of the next test is Amaranthus. The conditions noted are these: greenhouse, application rate 15 gai/ha, rated after three weeks, 0%=no effect, 100%=total destruction. As to the method: as §1, §2, §3, §4
In the next test the test system is Avena fatua. The following applies: greenhouse, application rate 15 gai/ha, rated after three weeks, 0%=no effect, 100%=total destruction. As to the method:
as §1, §2, §3, §4

Another test concerns Bromus. The following applies: greenhouse, application rate 15 gai/ha, rated after three weeks, 0%=no effect, 100%=total destruction. As to the method:
as §1, §2, §3, §4

The test system of a further test is Chenopodium. The conditions noted are these: greenhouse, application rate 15 gai/ha, rated after three weeks, 0%=no effect, 100%=total destruction. How it is done: as §1, §2, §3, §4
Another test relates to Digitaria. The conditions noted are these: greenhouse, application rate 15 gai/ha, rated after three weeks, 0%=no effect, 100%=total destruction. As to the method:
as §1, §2, §3, §4

For the next test, the system named is Galium. The following applies: greenhouse, application rate 15 gai/ha, rated after three weeks, 0%=no effect, 100%=total destruction. As to the method: as §1, §2, §3, §4
In another test the test system is Lolium. The conditions noted are these: Lolium, 504 h, greenhouse, application rate 15 gai/ha, rated after three weeks, 0%=no effect, 100%=total destruction, read-out: degree of damage to the plants, Lolium. As to the method: as §1, §2, §3, §4
The subject of a further test is Matricaria. The conditions noted are these: Matricaria, 504 h, greenhouse, application rate 15 gai/ha, rated after three weeks, 0%=no effect, 100%=total destruction, read-out: degree of damage to the plants, Matricaria. As to the method:
as §1, §2, §3, §4

The test system of another test is Polygonum. The following applies: greenhouse, application rate 15 gai/ha, rated after three weeks, 0%=no effect, 100%=total destruction. As to the method: as §1, §2, §3, §4
The next test deals with Setaria. The conditions noted are these: greenhouse, application rate 15 gai/ha, rated after three weeks, 0%=no effect, 100%=total destruction. How it is done:
as §1, §2, §3, §4

The next test deals with Solanum. The conditions noted are these: greenhouse, application rate 15 gai/ha, rated after three weeks, 0%=no effect, 100%=total destruction. As to the method: as §1, §2, §3, §4
The next test has as its system Stellaria. The conditions noted are these: Stellaria, 504 h, greenhouse, application rate 15 gai/ha, rated after three weeks, 0%=no effect, 100%=total destruction, read-out: degree of damage to the plants, Stellaria. As to the method:
as §1, §2, §3, §4

The next test has as its system Xanthium. The conditions noted are these: Xanthium, 504 h, greenhouse, application rate 15 gai/ha, rated after three weeks, 0%=no effect, 100%=total destruction, read-out: degree of damage to the plants, Xanthium. How it is done: as §1, §2, §3, §4
Another test concerns maize. The following applies: Zea mays, 504 h, greenhouse, application rate 15 gai/ha, rated after three weeks, 0%=no effect, 100%=total destruction, read-out: degree of damage to the plants, maize. How it is done: as §1, §2, §3, §4
Another test concerns soybeans. The following applies: greenhouse, application rate 15 gai/ha, rated after three weeks, 0%=no effect, 100%=total destruction. As to the method: as §1, §2, §3, §4
The test system of another test is wheat. The following applies: Triticum aestivum, 504 h, greenhouse, application rate 15 gai/ha, rated after three weeks, 0%=no effect, 100%=total destruction, read-out: degree of damage to the plants, wheat. As to the method:
as §1, §2, §3, §4

These results are taken from patent US7625841B2, “Substituted thiene-3-ylsulphonylamino(thio)carbonyltriazolin(ethi)ones” (Bayer CropScience AG, priority 2001, dated 2009).

SMILES strings stand for the structures.

For the molecule `COC(=O)c1csc(C)c1S(=O)(=O)NC(=O)n1nc(C)n(C)c1=O` [(E), methyl 4-[[[(4,5-dihydro-3,4-dimethyl-5-oxo-1H-1,2,4-triazol-1-yl)carbonyl]-amino]sulfonyl]-5-methyl-3-thiophenecarboxylate, reference compound], in the test on Alopecurus, the “degree of damage to the plants, Alopecurus” value (“degree of damage … Alopecurus” below) was determined as 20%. Moreover, the “degree of damage to the plants, Amaranthus” value (“degree of damage … Amaranthus” for short) with Amaranthus amounted to 10%. In addition, the “degree of damage to the plants, Avena fatua” value (“degree of damage … Avena fatua” below) with Avena fatua is on record as 0%. The “degree of damage to the plants, Bromus” value with Bromus stood at 20%. In addition, the “degree of damage to the plants, Chenopodium” value (“degree of damage … Chenopodium” below) in the test on Chenopodium is on record as 0%. Further, the “degree of damage to the plants, Digitaria” value (“degree of damage … Digitaria” below) in the test on Digitaria is 0%. Further, the “degree of damage to the plants, Galium” value in the test on Galium was 0%. The pest or weed control at 15 g/ha amounted to 0% with Lolium, 20% in the test on Matricaria, 40% in the test on Stellaria and 0% in the test with Xanthium. In addition, the “degree of damage to the plants, Polygonum” value (from here on “degree of damage … Polygonum”) in the test with Polygonum amounted to 20%. For the same molecule, the “degree of damage to the plants, Setaria” value in the test with Setaria is given as 20%. Besides, the “degree of damage to the plants, Solanum” value in the test on Solanum was determined as 70%. Moreover, the plant injury at 15 g/ha in the test with maize and in the test on wheat was 0% throughout. In addition, the “degree of damage to the plants, soybeans” value in the test with soybeans was 0%.
As for `CCc1nn(C(=O)NS(=O)(=O)c2c(C(=O)OC)csc2C)c(=O)n1C` [(F), methyl 4-[[[(4,5-dihydro-3-ethyl-4-methyl-5-oxo-1H-1,2,4-triazol-1-yl)carbonyl]-amino]sulfonyl]-5-methyl-3-thiophenecarboxylate, reference compound], the “degree of damage … Alopecurus” value in the test on Alopecurus was 70%. Further, in the test with Amaranthus, the “degree of damage … Amaranthus” value was 40%. In addition, in the test with Avena fatua, the “degree of damage … Avena fatua” value worked out at 60%. The “degree of damage to the plants, Bromus” value in the test on Bromus amounted to 70%. Besides, the “degree of damage … Chenopodium” value with Chenopodium was found to be 0%. Besides, the “degree of damage … Digitaria” value with Digitaria is given as 60%. Moreover, the “degree of damage to the plants, Galium” value with Galium stood at 10%. The pest or weed control at 15 g/ha in the test with Lolium was 40%; in the test with Matricaria it was 20%; in the test with Stellaria, 70%; with Xanthium it was 0%. For the same molecule, in the test on Polygonum, the “degree of damage … Polygonum” value turned out to be 50%. Moreover, the “degree of damage to the plants, Setaria” value in the test with Setaria was 30%. The “degree of damage to the plants, Solanum” value in the test on Solanum worked out at 80%. Further, the plant injury at 15 g/ha with maize and with wheat was 0% in each case. Also, the “degree of damage to the plants, soybeans” value in the test with soybeans was found to be 10%.
Regarding `COC(=O)c1csc(C)c1S(=O)(=O)NC(=O)n1nc(C2CC2)n(C2CC2)c1=O` [(D), methyl 4-[[[(3,4-dicyclopropyl-4,5-dihydro-5-oxo-1H-1,2,4-triazol-1-yl)carbonyl]-amino]sulfonyl]-5-methyl-3-thiophenecarboxylate, reference compound], the “degree of damage … Alopecurus” value with Alopecurus is recorded as 0%. In the test on Amaranthus, the “degree of damage … Amaranthus” value turned out to be 80%. Moreover, the “degree of damage … Avena fatua” value in the test on Avena fatua amounted to 70%. The “degree of damage to the plants, Bromus” value in the test on Bromus stood at 10%. The “degree of damage … Chenopodium” value with Chenopodium came out at 0%. For the same molecule, the “degree of damage … Digitaria” value in the test on Digitaria was 20%. For the same molecule, the “degree of damage to the plants, Galium” value with Galium came to 0%. Further, the pest or weed control at 15 g/ha in the test on Lolium is 20%; in the test on Matricaria it was 10%; in the test on Stellaria, 60%; in the test on Xanthium, 0%. In addition, the “degree of damage … Polygonum” value in the test with Polygonum is 10%. Also, the “degree of damage to the plants, Setaria” value in the test with Setaria amounted to 10%. Besides, in the test with Solanum, the “degree of damage to the plants, Solanum” value is 80%. The plant injury at 15 g/ha in the test with maize was 20%; in the test with wheat, 0%. The “degree of damage to the plants, soybeans” value with soybeans is recorded as 0%.
As for `COC(=O)c1csc(C)c1S(=O)(=O)NC(=O)n1nc(OC(C)C)n(C2CC2)c1=O` [(C), methyl 4-[[[(4-cyclopropyl-4,5-dihydro-5-oxo-3-isopropoxy-1H-1,2,4-triazol-1-yl)-carbonyl]amino]sulfonyl]-5-methyl-3-thiophenecarboxylate, reference compound], the “degree of damage … Alopecurus” value in the test with Alopecurus was found to be 0%. Further, the “degree of damage … Amaranthus” value in the test with Amaranthus came to 80%. Moreover, in the test with Avena fatua, the “degree of damage … Avena fatua” value is on record as 50%. The “degree of damage to the plants, Bromus” value in the test on Bromus turned out to be 70%. Besides, in the test on Chenopodium, the “degree of damage … Chenopodium” value worked out at 40%. Moreover, the “degree of damage … Digitaria” value in the test with Digitaria is listed as 20%. In addition, in the test on Galium, the “degree of damage to the plants, Galium” value worked out at 70%. Moreover, the pest or weed control at 15 g/ha in the test on Lolium is 50%; in the test on Matricaria it was 80%; in the test on Stellaria it was 80%; with Xanthium, 0%. Also, the “degree of damage … Polygonum” value in the test on Polygonum worked out at 60%. Moreover, the “degree of damage to the plants, Setaria” value in the test with Setaria amounted to 50%. Also, the plant injury at 15 g/ha with maize and in the test with wheat was 0% each time. Also, the “degree of damage to the plants, soybeans” value with soybeans turned out to be 0%.
With `COC(=O)c1csc(C)c1S(=O)(=O)NC(=O)n1nc(SC)n(C)c1=O` [(G), methyl 4-[[[(4,5-dihydro-4-methyl-3-methylthio-5-oxo-1H-1,2,4-triazol-1-yl)carbonyl]amino]sulfonyl]-5-methyl-3-thiophenecarboxylate, reference compound], in the test on Amaranthus, the “degree of damage … Amaranthus” value is on record as 40%. The “degree of damage … Avena fatua” value in the test with Avena fatua came to 50%. For the same molecule, in the test with Chenopodium, the “degree of damage … Chenopodium” value amounted to 50%. Besides, the “degree of damage … Digitaria” value in the test on Digitaria was 50%. Besides, the “degree of damage to the plants, Galium” value with Galium came to 30%. Besides, the pest or weed control at 15 g/ha in the test on Lolium was 60%; with Matricaria it was 70%; with Stellaria, 80%; in the test on Xanthium, 40%. For the same molecule, the “degree of damage … Polygonum” value with Polygonum is recorded as 70%. Moreover, in the test on Setaria, the “degree of damage to the plants, Setaria” value is given as 70%. The “degree of damage to the plants, Solanum” value in the test with Solanum is given as 80%. For the same molecule, the plant injury at 15 g/ha with maize and in the test on wheat was 0% throughout. In the test with soybeans, the “degree of damage to the plants, soybeans” value is 50%.
